The text below walks through data of patent publication US20100256229A1, “COMPOSITIONS OF CHOL[…]” (priority 2009, published 2010).

Structures can show the parent of a compound that is named as a salt.

For one data set, the system named is male Wistar rats. As to the kind of experiment: Wake promotion, EEG/EMG sleep-wake monitoring (SCORE2004). To be noted: for duration of wakefulness (total minutes of sleep loss): dosed at CT-5, various dose ranges. The procedure:
Test compounds in various dose ranges or vehicle were administered to male Wistar rats 5 hours after lights on (CT-5). EEG, EMG, locomotor activity, drink- and food-related activity, and body temperature were concurrently monitored for 30 hr before and after treatment from rats living in separate isolated recording chambers.

The target in data set [1] is T1, BuChE (human, purified from) (Homo sapiens, UniProt P06276).
T1 construct: BuChE (human, purified from erythrocytes); from tissue
As to the kind of experiment: In vitro inhibition of BuChE, modified Ellman procedure. In kind it is biochemical. The note with it: purified human butyrylcholinesterase (plasma); mean of two or three independent experiments; read-out: hBuChE IC50. On the technique in general: DTNB colorimetry detects thiols as they appear.

Data set [2] in a line: Maximum Tolerated Dose determination. The procedure: The in vivo effectiveness of the stigmine compounds in vivo inhibitors was evaluated. Initially, the Maximum Tolerated Dose (MTD) was determined for each compound. The MTD was defined as the dose at which clear, yet reversible and non-life threatening cholinergic effects were observed.
(§1) Following administration, rats were sacrificed and blood and brain samples were collected, processed and ChE activity was determined spectrophotometrically as described above.

The subject of data set [3] is total plasma cholinesterase. The data set is described as follows: In vivo inhibition of plasma cholinesterase after oral dosing. Further details: species or system rats. The procedure:
as §1

The test system of data set [4] is total brain cholinesterase. As to the kind of experiment: In vivo inhibition of brain cholinesterase after oral dosing. Also on record: species or system rats. The procedure:
as §1

Data set [5] has as its target T2, rhAChE (Homo sapiens, UniProt P22303). The data set is described as follows: Decarbamylation / reconstitution of inhibited enzyme. In kind it is biochemical. To be noted: for Decarbamylation rate k: phosphate buffer, 37° C., first-order model. The procedure: Next, the release of amphetamine from inhibited cholinesterase was investigated indirectly by monitoring reconstitution of enzyme activity as described above. […] The enzyme was separated from small organic molecules (carbamate and possible degradation products) by size exclusion chromatography over a Sephadex column. Purified, inhibited enzyme was incubated in phosphate buffer at 37° C., aliquots were drawn at various time points and the enzymatic activity was determined as described above. The data were plotted as the natural logarithm of the percent inhibition versus time according to a first-order kinetics model. The decarbamylation rate constant k was determined as the slope of this line. The halflife t1/2 is directly related to k (k=−ln(0.500)/t1/2).

Data set [6] deals with Recombinant human cholinesterase (Homo sapiens, UniProt P22303). As to the kind of experiment: Amphetamine release from inhibited enzyme, LC/MS/MS. The class given is biochemical.
Data set [7] has as its system scopolamine model of passive avoidance. The data set is described as follows: Scopolamine model of passive avoidance. The class given is in vivo, rats. The note with it: 8 and 12 mg/kg i.p. 30 minutes before training; scopolamine 0.2 mg/kg s.c.; p<0.01. The procedure:
Prior to training, rats were injected with scopolamine hydrobromide (0.2 mg/kg, s.c, 40 minutes before training) and with either saline or compound 4a (8, 12, 16 or 24 mg/kg, i.p, 30 minutes prior to training). The animals received a retention test 24 hours following training. The retention test was identical to training except that no foot-shock or drug was delivered. Latency to enter the dark chamber was recorded.

For data set [8], the target named is T2, rhAChE. To be noted: for IC50: read-out: rhAChE IC50.
A short description of data set [9]: Hygroscopicity testing and sorption isotherm. The class given is physicochemical. The note with it: for hygroscopicity testing, appearance: sulfate after 3 days, fumarate after 7 days.
The nature of data set [10]: Mechanical stress (micronizing). In kind it is physicochemical. The note with it: micronizing 20 minutes at 30 Hz, after standing 20 minutes; ball mill stress. An excerpt: FIG. 13 is two microscopic views of the hydrogen fumarate salt of compound 3d under mechanical stress.
Data set [11] can be described thus: Solid state and solution stability. The note with it: for solid state stability to heat: 40° C. for 7 days; for solid state stability to UV: 220 W-h/m^2; for solid state stability to visible light: visible light exposure, 7.3×10^6 lux hours.
Data set [12] in a line: Solubility (formulation studies).
For data set [13], the system named is rats trained to discriminate methamphetamine from saline. As to the kind of experiment: Drug discrimination (methamphetamine versus saline). The class given is in vivo. To be noted: 0.1-3.2 mg/kg i.p. or 0.32-10 mg/kg p.o. From the text:
Drug discrimination is an operant paradigm that enables assessment of drug abuse liability (Yasar & Bergman, 1994. Amphetamine-like effect of 1-deprenyl (selegiline) in drug discrimination studies. Clin. Pharmacol. Therap. 56 (S78), 768-773). In this paradigm, psychostimulant properties of compounds may be determined in rats trained to discriminate methamphetamine from saline. Hungry rats are initially placed in a test apparatus where they learn that pressing either of two levers results in delivery of a food pellet. […]. On other days, rats are pretreated with vehicle, and must then select the opposite lever in order to obtain food. In this way, rats must learn to use the interoceptive cues generated by the psychostimulant drug to guide its choice of levers. Once lever pressing to a predetermined criterion has been established, a test compound can be administered. […]. If the rat chooses the methamphetamine lever, the test drug is said to have shown stimulus generalization; that is, it is perceived to be methamphetamine-like by the rat. […].

[14] abbreviates: 60 minutes after oral dosing at MTD or highest dose tested, n = 4.
The mark [15] stands for this setting: oral dosing at MTD, mean of three measurements between 30 and 180 min following dosing.

T2 sequence (P22303 32-614): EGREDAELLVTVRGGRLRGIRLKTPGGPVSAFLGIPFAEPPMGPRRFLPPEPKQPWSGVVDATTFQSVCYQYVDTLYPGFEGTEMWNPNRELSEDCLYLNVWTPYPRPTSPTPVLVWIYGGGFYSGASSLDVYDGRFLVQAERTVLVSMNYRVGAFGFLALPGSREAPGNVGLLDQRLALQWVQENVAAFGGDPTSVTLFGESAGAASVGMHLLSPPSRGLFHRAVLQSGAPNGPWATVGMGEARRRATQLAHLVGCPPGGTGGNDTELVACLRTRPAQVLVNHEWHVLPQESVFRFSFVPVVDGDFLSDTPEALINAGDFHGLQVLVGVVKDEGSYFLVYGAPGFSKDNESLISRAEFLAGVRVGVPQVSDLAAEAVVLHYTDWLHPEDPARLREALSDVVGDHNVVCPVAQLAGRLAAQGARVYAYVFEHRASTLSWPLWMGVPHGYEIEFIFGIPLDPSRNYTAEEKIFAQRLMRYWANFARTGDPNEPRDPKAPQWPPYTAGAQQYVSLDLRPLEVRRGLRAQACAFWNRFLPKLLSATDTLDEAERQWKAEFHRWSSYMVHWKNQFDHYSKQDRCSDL
T1 sequence (P06276 29-602): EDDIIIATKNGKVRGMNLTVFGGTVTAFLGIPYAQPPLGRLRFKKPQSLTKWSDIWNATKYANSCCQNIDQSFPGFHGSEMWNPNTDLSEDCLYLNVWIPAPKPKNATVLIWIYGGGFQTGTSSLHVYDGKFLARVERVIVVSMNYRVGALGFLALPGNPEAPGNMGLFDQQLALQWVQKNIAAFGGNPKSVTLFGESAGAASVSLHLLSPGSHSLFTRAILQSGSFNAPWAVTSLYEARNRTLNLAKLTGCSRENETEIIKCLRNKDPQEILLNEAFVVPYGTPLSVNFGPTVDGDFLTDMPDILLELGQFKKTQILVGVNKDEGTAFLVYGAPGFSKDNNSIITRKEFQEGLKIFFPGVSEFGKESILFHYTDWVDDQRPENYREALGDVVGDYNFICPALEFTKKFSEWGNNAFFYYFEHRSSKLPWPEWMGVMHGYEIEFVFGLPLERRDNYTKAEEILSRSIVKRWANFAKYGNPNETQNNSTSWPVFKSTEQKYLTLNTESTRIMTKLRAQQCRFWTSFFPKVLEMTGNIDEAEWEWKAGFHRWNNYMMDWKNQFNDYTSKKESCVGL
Sequence of Recombinant human cholinesterase (P22303 32-614): as the sequence (P22303 32-614) above

With `C[C@H](N)Cc1ccccc1` [d-amphetamine, reference compound], the “duration of wakefulness (total minutes of sleep loss)” value in the data set with male Wistar rats is reported as “increased the duration of wakefulness”.

For `C[C@@H](Cc1ccccc1)NC(=O)Oc1cccc([C@H](C)N(C)C)c1` [Compound 4a], the values for the 50% inhibitory concentration (IC50) (in [1]; on rhAChE [8]) were 7320 nM and 508 nM, respectively. Further, the MTD – broadly, the highest dose tested that stayed within the study's limit of toxicity – in data set [2] (rat, in vivo, po) was > 100 mg/kg. Also, in [3] (setting [14]), the “Plasma ChEI” value came to 59%. Moreover, the “Brain ChEI” value in data set [4] (setting [14]) came to 72%. Moreover, the enzyme reconstitution at rhAChE [5] (at 4 h) worked out at 80%. In addition, at rhAChE [5], the Decarbamylation rate k amounted to 0.558 h⁻¹. Moreover, the “d-amphetamine in decarbamylation aliquots” value in [6] (aliquots drawn 4 h later) is given as 53 ng/mL. Also, the “amphetamine in decarbamylation aliquots” value in data set [6] (aliquots drawn at t=0) is reported as “did not contain amphetamine”. Further, the “scopolamine-induced amnesia, step-through latency at 24 h retention test” value in data set [7] was “alleviated”. For the same compound, at rhAChE [8], the “more selective for AChE than rivastigmine” value is listed as 225 fold.

With `C[C@H](Cc1ccccc1)N(C)C(=O)Oc1cccc([C@H](C)N(C)C)c1.O=C(O)/C=C/C(=O)O` [hydrogen fumarate salt of compound 3d, 3-((S)-1-(Dimethylamino)ethyl)phenyl methyl-((R)-1-phenylpropan-2 yl)carbamate Hydrogen Fumarate], the “hygroscopicity testing, appearance” value in data set [9] (40° C./75 RH) was “solid”. The “hygroscopicity, analysis by microscopy” value in data set [9] (after 7 days at 75% relative humidity) was “remains crystalline with traces of amorphous material”. Moreover, the mechanical stress result in [10] was “gumming”. Besides, in data set [11], the “solid state stability to heat” value is reported as “stable”, the “solid state stability to UV” value is on record as “stable” and the “solid state stability to visible light” value is reported as “stable”. The “chemical stability in water” value in data set [11] (up to 7 days at 40° C.) is reported as “stable”.

Turning to `C[C@H](Cc1ccccc1)N(C)C(=O)Oc1cccc([C@H](C)N(C)C)c1` [Compound 3d, 3-((S)-1-(dimethylamino)ethyl)phenyl methyl-((R)-1-phenylpropan-2 yl)carbamate], the “hygroscopicity testing by DSC and XRPD” value in data set [9] (40° C./75 RH, 7 days) is “stability over 7 days”. The “maximum moisture uptake (sorption isotherm)” value in [9] (at 75 RH) is reported as “about 1%”. Further, the mechanical stress result in [10] is “instability to extreme thermal conditions”. Further, in data set [12] (pH 3, aqueous buffer), the solubility – broadly, the concentration that dissolves in the medium under given conditions – was > 50 mg/mL. Also, the solubility in data set [12] (sixteen vehicles for oral dosing (rodents), aqueous with cosolvent or surfactant or cyclodextrin) was > 50 mg/mL. Moreover, in data set [11], the “solid state stability to heat” value is “stable”, the “solid state stability to UV” value is “stable” and the “solid state stability to visible light” value is listed as “no change”. Moreover, in data set [11] (pH 4, 5, 6, after 7 days, HPLC recovery), the solution stability entry is on record as “stable”.

As to `CC(c1cccc(OC(=O)N(C)C(C)Cc2ccccc2)c1)N(C)C` (centres unmarked) [Compound 4d], the IC50 (commonly the point on the concentration scale where inhibition reaches its midpoint) in data set [1] was 24400 nM. Besides, the MTD in data set [2] (rat, in vivo, po) was 10 mg/kg. Further, the “Plasma ChEI” value in data set [3] (setting [14]) was 45%. Also, the “Brain ChEI” value in [4] (setting [14]) is 64%. Further, on rhAChE [5], the Decarbamylation rate k is 0.011 h⁻¹.

`C[C@H](Cc1ccccc1)NC(=O)Oc1cccc([C@H](C)N(C)C)c1` [Compound 4b]: the results for the IC50 (in data set [1]; at rhAChE [8]) were 416 nM and 404 nM, respectively. The compound also registered an MTD in data set [2] (rat, in vivo, po) of 32 mg/kg. Further, the “Plasma ChEI” value in data set [3] (setting [14]) is 26%. Moreover, the “Brain ChEI” value in [4] (setting [14]) was determined as 25%. The Decarbamylation rate k at rhAChE [5] is 0.057 h⁻¹.

In the case of `C[C@@H](c1cccc(OC(=O)N(C)[C@@H](C)Cc2ccccc2)c1)N(C)C` [D, s-riva-d-methamphetamine], the “duration of wakefulness (total minutes of sleep loss)” value in the data set on male Wistar rats is reported as “dose-related increase in wakefulness”.

Turning to `C[C@@H](c1cccc(OC(=O)N(C)[C@@H](C)Cc2ccccc2)c1)N(C)C` [Compound 4c], the IC50 in data set [1] amounted to 334 nM. The MTD in [2] (rat, in vivo, po) was > 64 mg/kg. In [3] (setting [14]), the “Plasma ChEI” value worked out at 50%. In addition, the “Brain ChEI” value in data set [4] (setting [14]) was determined as 50%. Also, on rhAChE [5], the Decarbamylation rate k was 0.003 h⁻¹.

On to `CCN(C)C(=O)Oc1cccc([C@H](C)N(C)C)c1` [Rivastigmine, rivastigmine, reference compound], for which the MTD in data set [2] (oral, dose with clear, reversible, non-life threatening cholinergic effects, or highest dose tested) was determined as 5 mg/kg. In [3] (setting [15]), the “Plasma ChEI” value is listed as 39%. Also, in [4] (setting [15]), the “Brain ChEI” value amounted to 56%. The “duration of wakefulness (total minutes of sleep loss)” value in the data set with male Wistar rats was “increased wakefulness”.

For `C[C@H](Cc1ccccc1)N(C)C(=O)Oc1cccc([C@H](C)N(C)C)c1` [Compound B, s-riva-l-methamphetamine], the “duration of wakefulness (total minutes of sleep loss)” value in the data set with male Wistar rats was “dose-related increase in wakefulness”. In the data set with male Wistar rats (following administration), the rebound hypersomnolence result was “not observed”. Further, in the data set with male Wistar rats (rat, in vivo), the body temperature result is “reduction in body temperature” and the locomotor activity entry is “did not cause locomotor hyperactivity”. Also, the “increase in wakefulness compared with reference compounds” value in the data set with male Wistar rats (versus d-amphetamine, rivastigmine, modafinil) is on record as “surpassed that seen with the reference compounds tested”. Further, the “stimulus generalization to methamphetamine (lever selection)” value in data set [13] was “did not select the methamphetamine lever”.

For `C[C@H](Cc1ccccc1)N(C)C(=O)Oc1cccc([C@H](C)N(C)C)c1` [hydrogen sulfate salt of compound 3d, 3-(S)-1-(Dimethylamino)ethyl)phenyl methyl-((R)-1-phenylpropan-2 yl)carbamate Hydrogen Sulfate], the “hygroscopicity testing, appearance” value in [9] (40° C./75 RH) is “deliquesces”.

For `NC(=O)C[S+]([O-])C(c1ccccc1)c1ccccc1` (centres unmarked) [modafinil, reference compound], the “duration of wakefulness (total minutes of sleep loss)” value in the data set on male Wistar rats was “increased the duration of wakefulness”.

In the case of `C[C@H](Cc1ccccc1)NC(=O)Oc1cccc([C@H](C)N(C)C)c1` [Compound A, s-riva-l-amphetamine], the “duration of wakefulness (total minutes of sleep loss)” value in the data set on male Wistar rats is listed as “dose-related increase in wakefulness”.

Regarding `C[C@@H](Cc1ccccc1)NC(=O)Oc1cccc([C@H](C)N(C)C)c1` [C, s-riva-d-amphetamine], the “duration of wakefulness (total minutes of sleep loss)” value in the data set with male Wistar rats is reported as “dose-related increase in wakefulness”.
